Reference: patent US20230148599A1, “FUNGICIDAL MIXTURES CONTAINING PYRAZOLE DERIVATIVES” (FMC Corporation, priority 2020, published 2023)

Legend:
Format in all cases: in vivo
Details in all cases: 50 ppm, 100 = 100% disease control, 0 = no control
[1] = tested on: Puccinia recondita f. sp. tritici; assay: Test B: wheat leaf rust, preventive spray on wheat seedlings
Description: (§1) General protocol for preparing test suspensions for Tests A-F: the test compounds were first dissolved in acetone in an amount equal to 3% of the final volume and then suspended at the desired concentration (in ppm) in acetone and purified water (50/50 mix by volume) containing 250 ppm of the surfactant PEG400 (polyhydric alcohol esters). The resulting test suspensions were then used in Tests A-F.
The test solution was sprayed to the point of run-off on wheat seedlings. The following day the seedlings were inoculated with a spore suspension of Puccinia recondita f. sp. tritici (the causal agent of wheat leaf rust) and incubated in a saturated atmosphere at 20° C. for 24 h, and then moved to a growth chamber at 20° C. for 7 days, after which time disease ratings were made.
(§2) A rating of 100 indicates 100% disease control and a rating of 0 indicates no disease control (relative to the controls). A dash (−) indicates the compound was not tested.

[2] = tested on: Blumeria graminis f. sp. tritici; assay: Test C: wheat powdery mildew, preventive spray on wheat seedlings
Description: as §1
The test suspension was sprayed to the point of run-off on wheat seedlings. The following day the seedlings were inoculated with a spore dust of Blumeria graminis f. sp. tritici, (also known as Erysiphe graminis f. sp. tritici, the causal agent of wheat powdery mildew) and incubated in a growth chamber at 20° C. for 8 days, after which time visual disease ratings were made.
as §2

Alternaria solani = assay: Test F: tomato early blight, preventive spray on tomato seedlings
Description: as §1
The test suspension was sprayed to the point of run-off on tomato seedlings. The following day the seedlings were inoculated with a spore suspension of Alternaria solani (the causal agent of tomato early blight) and incubated in a saturated atmosphere at 27° C. for 48 h, and then moved to a growth chamber at 20° C. for 3 days, after which time visual disease ratings were made.
as §2

Botrytis cinerea = assay: Test E: tomato Botrytis, preventive spray on tomato seedlings
Description: as §1
The test suspension was sprayed to the point of run-off on tomato seedlings. The following day the seedlings were inoculated with a spore suspension of Botrytis cinerea (the causal agent of tomato Botrytis) and incubated in a saturated atmosphere at 20° C. for 48 h, and then moved to a growth chamber at 24° C. for 3 days, after which time visual disease ratings were made.
as §2

Septoria tritici = assay: Test A: wheat leaf blotch, preventive spray on wheat seedlings
Description: as §1
The test solution was sprayed to the point of run-off on wheat seedlings. The following day the seedlings were inoculated with a spore suspension of Septoria tritici (the causal agent of wheat leaf blotch) and incubated in a saturated atmosphere at 24° C. for 48 h, and then moved to a growth chamber at 20° C. for 17 days, after which time disease ratings were made.
as §2

Phakopsora pachyrhizi = assay: Test D: Asian soybean rust, preventive spray on soybean seedlings
Description: as §1
The test solution was sprayed to the point of run-off on soybean seedlings. The following day the seedlings were inoculated with a spore suspension of Phakopsora pachyrhizi (the causal agent of Asian soybean rust) and incubated in a saturated atmosphere at 22° C. for 24 h and then moved to a growth chamber at 22° C. for 8 days, after which time visual disease ratings were made.
as §2

Compound	Test B disease control rating [1] [%]	Test C disease control rating [2] [%]	Test F disease control rating (Alternaria solani) [%]	Test E disease control rating (Botrytis cinerea) [%]	Test A disease control rating (Septoria tritici) [%]	Test D disease control rating (Phakopsora pachyrhizi) [%]
Cc1nn(C)c(Nc2c(Cl)cc(F)cc2[N+](=O)[O-])c1-c1ccc(F)cc1Br [compound 43]	100	97	64	96	100	65
CCc1nn(C)c(Nc2ccc(OC)cc2[N+](=O)[O-])c1-c1ccc(F)cc1F [compound 45]	86	95	33	99	100	0
CCc1nn(C)c(Nc2ccc(C)cc2[N+](=O)[O-])c1-c1ccc(F)cc1F [compound 175]	86	79	0	88	100	0
COc1ccc(-c2c(C)nn(C)c2Nc2c(C)cccc2[N+](=O)[O-])c(Cl)c1 [compound 183]	99	78	58	100	100	0
Cc1nn(C)c(Nc2c(F)cccc2[N+](=O)[O-])c1-c1c(F)cc(F)cc1F [compound 62]	100	100	99	99	100	100
Cc1nn(C)c(Nc2c(F)cc(F)cc2[N+](=O)[O-])c1-c1ccc(F)cc1F [compound 58]	100	99	99	99	100	36
Cc1ccc(Nc2c(-c3ccc(F)cc3Br)c(C)nn2C)c([N+](=O)[O-])c1 [compound 90]	95	87	9	99	100	0
Cc1cc(F)c(Nc2c(-c3c(F)cccc3Cl)c(C)nn2C)c([N+](=O)[O-])c1 [compound 201]	100	99	99	99	100	98
Cc1nn(C)c(Nc2c(F)cc(F)cc2[N+](=O)[O-])c1-c1c(F)cccc1Cl [compound 39]	100	99	99	88	100	73
Cc1nn(C)c(Nc2c(Cl)cccc2[N+](=O)[O-])c1-c1ccc(Cl)cc1Cl [compound 133]	86	0	0	97	100	0
Cc1cc(F)c(Nc2c(-c3ccc(F)cc3F)c(C)nn2C)c([N+](=O)[O-])c1 [compound 178]	100	99	100	100	100	97
Cc1nn(C)c(Nc2c(Cl)cccc2[N+](=O)[O-])c1-c1c(F)cccc1F [compound 77]	100	95	9	72	100	73
CCc1nn(C)c(Nc2c(F)cccc2[N+](=O)[O-])c1-c1ccc(F)cc1F [compound 46]	98	99	81	99	100	0
Cc1nn(C)c(Nc2c(Cl)cc(F)cc2[N+](=O)[O-])c1-c1ccc(Cl)cc1Cl [compound 10]	99	48	9	68	100	0
Cc1cc(Cl)c(Nc2c(-c3c(F)cccc3Cl)c(C)nn2C)c([N+](=O)[O-])c1 [compound 24]	89	0	0	97	100	0
COc1cc(F)c(-c2c(C)nn(C)c2Nc2c(Cl)cccc2[N+](=O)[O-])c(F)c1 [compound 160]	100	96	99	100	98	86
Cn1nc(C#N)c(-c2ccc(F)cc2Cl)c1Nc1c(F)cccc1[N+](=O)[O-] [compound 122]	100	94	99	100	100	0
COc1cc(F)c(Nc2c(-c3ccc(Cl)cc3Cl)c(C)nn2C)c([N+](=O)[O-])c1 [compound 138]	100	93	100	99	100	67
COc1cc(Cl)c(Nc2c(-c3ccc(F)cc3F)c(C)nn2C)c([N+](=O)[O-])c1 [compound 141]	100	99	83	99	99	0
Cc1nn(C)c(Nc2ccccc2[N+](=O)[O-])c1-c1ccc(Cl)cc1Cl [compound 189]	68	57	0	99	99	0
